# From PMC11522800 (Frontiers in Immunology, 2024)
# Where two headings read alike, the source gives them in different places.
# How the values were obtained:
# [1] = plasma of healthy volunteers after oral administration of SI-labelled XP dipeptides (with water or Peptamen); settings: human (healthy volunteers), up to 72 h
# [2] = Method: Cohort 1 received 50 mg of each dipeptide in 300 mL water. Cohort 2 received 100 mL Peptamen first, then 50 mg of each dipeptide in 150 mL water, followed by another 50 mL water. All drinks were taken within a minute. Cohort 3 received 100 mL Peptamen first, then a reduced dose of 5 mg of each dipeptide in 150 mL water, followed by another 50 mL water. All drinks were taken within a minute. Blood samples were collected after 15 min, 30 min, 45 min, 1 h, 2 h, 3 h, 4 h, 6 h, 8 h, 10 h, 14 h, 48 h and 72 h after dosing. Urine was collected and pooled at 0-4 h, 4-6 h, and 6-10 h, and was collected as spot urine at 48 h and 72 h after dosing.
# Plasma samples were thawed on ice, mixed, and 100 µL of each sample was transferred to a 1.5 mL LoBind reaction tube. Plasma samples were precipitated after adding 200 µL of acetonitrile/methanol (10:1), and incubated on ice for 15 min. Samples were centrifuged at 16,000 g for 15 min at 4 °C. 100 µL supernatant was dried under nitrogen at 40 °C. Samples were reconstituted in 100 µL 0.1% formic acid and 5 µL was applied to the LC-MS/MS instrument.
# Labelled XP dipeptides and single amino acids (P*, L*, F*) in plasma samples were quantified by LC-MS/MS using Nexera LC40 HPLC system (Shimadzu, Duisburg, Germany) coupled to an API 6500+ ™ tandem mass spectrometer (AB Sciex, Darmstadt, Germany). For chromatographic separation an ACQUITY UPLC HSS PFP Column (100 Å, 1.8 µm, 2.1 mm X 150 mm; Waters, Eschborn, Germany) protected by a SecurityGuard C18 column (4x2 mm; Phenomenex, Aschaffenburg, Germany) was used. Chromatographic separation was performed at an oven temperature of 40°C and the solvent flow rate was set to 400 µL/min. Elution was achieved by varying composition of solvent A (90% acetonitrile + methanol (6 + 1), 0.1% formic acid in H2O) and solvent B (0.1% formic acid in H2O) using following LC conditions: 0-1.4 min 0% solvent A; 1.4-10.4 min 0-50% solvent A; 10.5-12.9 min 80% solvent A; 13-15 min 0% solvent A. To decrease the introduction of debris into the MS, a valve was directed to waste at 0.1-1 min and 9.5-14.9 min.
# MS detection of labelled amino acids and XP dipeptides was performed in positive mode with curtain gas set to 40, gas 1 of 50, gas 2 of 70, temperature of 500°C and an IS of 3500. Detection was achieved using MS parameters and mass transitions listed in Supplementary Table 3 .
# LC-MS/MS-generated chromatograms were analyzed using Analyst 1.7.2 (Sciex, Darmstadt, Germany). The pharmacokinetics parameter AUC was calculated using GraphPad Prism version 8.0 (GraphPad Prism Software Inc., La Jolla, CA, USA). Partial AUCs were calculated manually using the trapezoidal rule.
# Statistical analyses were performed using SPSS Statistics Version 28 (SPSS Inc., IBM, Chicago, IL, USA). To compare the effects between cohorts in the dipeptide resorption study the one-tailed Mann-Whitney-Test was applied. To compare the effects between enzyme supplementation and controls during the proof-of-concept study the one tailed Wilcoxon matched-pairs signed rank test was applied.
# [3] = test system: gastric, pancreatic, and intestinal peptidases; test: human gastric, pancreatic, and intestinal peptidases; settings: cited from earlier work
# [4] = test system: AMYNOPEP (dipeptidyl peptidase : aminopeptidase, 1:1 ratio); test: in vitro with AMYNOPEP at an enzyme ratio of 1:1
# [5] = test system: AMYNOPEP (dipeptidyl peptidase and aminopeptidase, 1:10 enzyme ratio); test: Tris buffer at pH 7.0 using an enzyme mixture consisting of 0.86 mg/L dipeptidyl peptidase and 8.6 mg/L aminopeptidase; settings: 37°C, up to 60 minutes
compound,measurement,setting,value
F*P*,cleaved bond,[1],F*-P*
"N[C@@H](Cc1ccccc1)C(=O)O [F*, phenylalanine]",reduction in plasma AUC of labelled amino acid on dose reduction from 50 mg to 5 mg of each XP,"[2]; oral XP dipeptides taken with 100 mL Peptamen, n=3 healthy volunteers per cohort, LC-MS/MS",9.5 fold
same,SI-labelled amino acid detection in plasma after oral XP dipeptides,"[2]; oral, 50 mg each of F*P*, LP*, L*P* in water, n=3 healthy volunteers, HPLC-MS/MS",detectable
same,decrease in plasma AUC of labelled amino acid with Peptamen relative to water,"[2]; oral, 50 mg of each XP dipeptide with 100 mL Peptamen vs water, n=3 healthy volunteers per cohort, LC-MS/MS",2.1 fold
L*P*,cleaved bond,[1],L*-P*
"CC(C)C[C@H](N)C(=O)O [L*, leucine]",reduction in plasma AUC of labelled amino acid on dose reduction from 50 mg to 5 mg of each XP,"[2]; human, in vivo, po",13.2 fold
"O=C(O)[C@@H]1CCCN1 [P*, proline]",reduction in plasma AUC of labelled amino acid on dose reduction from 50 mg to 5 mg of each XP,"[2]; human, in vivo, po",11.5 fold
LQLQPFPQPQLPYPQPQLPYPQPQLPYPQPQPF,not cleaved,[3],thought to be stable to proteolytic digestion
same,cleaved bond,[4],P-F
same,cleaved bond,[5],"L-Q, 5 min and P-Q and Q-L and P-Y and P-F, within 30 minutes and Q-L, 5 min and P-F, 5 min and P-Q, 5 min"
